This is an account of results in patent US12509460B2 (Skyhawk Therapeutics, Inc., priority 2019, dated 2025).

Data set [1] relates to MDR1-MDCK cell monolayers. The following applies: dog, MDCK-MDR1, 120 min, 5 μM, pH 7.4.
Data set [2] concerns mHTT protein in GM04724 (CAG 70/20) Huntington's disease patient lymphoblast cells. The experiment in a line: mHTT protein assay, 2B7-MW1 assay via Mesoscale Discovery (MSD). The following applies: GM04724 Huntington's disease patient lymphoblasts. The format is cell-based, human. Put shortly:
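Patient lymphoblasts treated 48 h with compound from 10 μM to 0.6 nM. mHTT quantified by MSD 2B7-MW1 immunoassay, whose signal depends on polyQ expansion and HTT size. Viability measured on a replicate plate by CellTiter Glo.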

Data set [3] has as its system MDR1 (P-gp). Description: in vitro. The following applies: dog, MDCK-MDR1, pH 7.4.
For data set [4], the system named is MDR1. Description: in vitro. The following applies: dog, MDCK-MDR1, pH 7.4.
Data set [5] deals with SMN protein in spinal muscular atrophy (SMA) patient fibroblasts (GM03813, Coriell). The experiment in a line: SMN protein assay, Mesoscale Discovery (MSD). The following applies: SMA patient fibroblasts GM03813, 48 hours, MSD; read-out: SMN2 protein EC50. In kind it is cell-based, human. The method, boiled down: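 SMA patient fibroblasts (GM03813) seeded at 7000 cells/well and exposed to compound at 2.5 μM to 0.6 nM for 48 hours. Lysates assayed for SMN by MSD immunoassay, with absolute SMN amount calculated from a per-plate SMN standard curve (1 μg/ml to 19.5 pg/ml).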

A short description of data set [6]: Quantitative splicing assay (HTT), qPCR. In kind it is cell-based, human. The following applies: Homo sapiens; GM04724 lymphoblasts, 24 h, qPCR; read-out: HTT Splicing: E49-50 EC50. Put shortly: (§1)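 Patient lymphoblasts (50,000 cells/well) dosed immediately after plating for 24 h at 2.5 uM to 0.15 nM in 0.1% DMSO. Lysed, cDNA made directly from cells, and inclusion of the intron 49 cryptic exon quantified by TaqMan qPCR.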
Background: Real-time PCR tracks product formation cycle by cycle.

The subject of data set [7] is SMN FL and SMN Δ7 in spinal muscular atrophy (SMA) patient fibroblasts (GM03813, Coriell). The experiment in a line: Quantitative splicing assay (SMN), qPCR. The format is cell-based, human. The following applies: Homo sapiens, Fibroblast, 24 h, SMA patient fibroblasts GM03813, 24 h, qPCR; read-out: SMN2 Splicing FL EC50. Here is the method: Spinal muscular atrophy (SMA) patient fibroblasts (GM03813, Coriell) are plated in 96-well plates at 50,000 cells/well. […] Treated cells are lysed and cDNA synthesized using the Fast Advanced Cells-to-Ct kit (Thermofisher A35378) according to the manufacturer's instructions. 2 μL of each cDNA are used in qPCR reactions. […] Reactions are run in a Quant Studio 6 qPCR instrument with default settings.

In data set [8] the test system is Huntingtin (HTT) transcripts, cryptic exon within intron 49, in GM04724 (CAG 70/20) Huntington's disease patient lymphoblasts. Description: Quantitative splicing assay (HTT), qPCR. The following applies: 24 h, qPCR, read-out: HTT Splicing: E49-50 EC50. The format is cell-based, human. The method, boiled down: as §1
For data set [9], the system named is MDR1-MDCK cell monolayers. The experiment in a line: Blood-brain-barrier (BBB) penetration potential via MDCK-MDR1 permeability assay. The following applies: for MDCK-MDR1: % Recov A-B / MDCK-MDR1: Papp A-B: A-B direction; for MDCK-MDR1: % Recov B-A / MDCK-MDR1: Papp B-A: B-A direction; for MDCK-MDR1: Efflux: efflux ratio.
The subject of data set [10] is MDR1 (P-gp). Described as above. The following applies: dog.
Data set [11] relates to MDR1. The data set is described as above. The following applies: dog, MDCK-MDR1, pH 7.4, MDCK-MDR1: Efflux, efflux ratio.

Read-outs that look alike come from different tables or passages of the source.

For the compound `CN(c1ccc(-c2cc3ccn(C)c(=O)c3cc2O)nn1)[C@H]1C[C@@H]2CC[C@H]([C@H]1F)N2C` (single isomer, unassigned) [Compound 97B], in data set [1], the “MDCK-MDR1: % Recov A-B” value came to 85% and the “MDCK-MDR1: % Recov B-A” value is 83%. In addition, in [2], the EC50 – broadly, the concentration needed to bring the measured effect to its halfway point – is 101 to 500 nM. In the data set on MDR1 (P-gp) [3], the Papp A→B – broadly, the apparent permeability from the apical to the basolateral side of a cell layer – at 120 min, 5 μM was found to be 1.96 ×10⁻⁶ cm/s and the Papp B→A (in general, how fast a substance crosses the layer from the basolateral side) at 120 min, 5 μM amounted to 53.1 ×10⁻⁶ cm/s. In addition, the efflux ratio (in general, the permeability from basolateral to apical divided by that in the opposite direction, in the common usage) at 120 min, 5 μM in the data set with MDR1 [4] was 27. In [5], the EC50 was in the range of 101 to 500 nM. Also, the EC50 in data set [6] lay in the range of 101 to 500 nM.
Turning to `Cn1cnc2cc(-c3ccc(N(C4CC4)[C@@H]4C[C@H]5CC[C@H](N5)[C@@H]4F)nn3)c(O)cc2c1=O` [Compound 56A, 7-(6-(cyclopropyl((1S,2S,3R,5R)-2-fluoro-8-azabicyclo[3.2.1]octan-3-yl)amino)pyridazin-3-yl)-6-hydroxy-3-methylquinazolin-4(3H)-one], in [1], the “MDCK-MDR1: % Recov A-B” value is 83% and the “MDCK-MDR1: % Recov B-A” value was 83%. Also, in data set [2], the EC50 lay within 101 to 500 nM. In the data set on MDR1 (P-gp) [3], this compound returned a Papp A→B at 120 min, 5 μM of 0.92 ×10⁻⁶ cm/s and a Papp B→A at 120 min, 5 μM of 51.4 ×10⁻⁶ cm/s. Further, the efflux ratio at 120 min, 5 μM in the data set with MDR1 [4] stood at 56. The EC50 in [5] lay in the range of 101 to 500 nM. The EC50 in [6] was 10 to 501 nM.
Take `CN(c1ccc(-c2ccc(-c3cn[nH]c3)cc2O)nn1)C1CC2COCC(N2)C1F` (centres unmarked) [Compound 8B]: in [2], the EC50 lay in the range of 0.01 to 15 nM. In addition, the EC50 in data set [5] was in the range of 16 to 50 nM. Also, the EC50 in data set [7] fell in the range of 16 to 50 nM. The EC50 in data set [8] lay within 0.01 to 15 nM. In addition, in [9], the “MDCK-MDR1: % Recov A-B” value turned out to be 84%; the “MDCK-MDR1: Papp A-B” value is 2.04 10^−6, cm/s; the “MDCK-MDR1: % Recov B-A” value came to 98%; the “MDCK-MDR1: Papp B-A” value is recorded as 39.1 10^−6, cm/s. In addition, in [9], the “MDCK-MDR1: Efflux” value stood at 19.
Compound `CN(c1ccc(-c2ccc(-c3cnn(C)c3)cc2O)nn1)C1CC2COCC(N2)C1F` (single isomer, unassigned) [Compound 80B] displayed an EC50 in data set [2] of 16 to 50 nM. The concentration giving a half-maximal response (EC50) in data set [5] lay within 101 to 500 nM. Moreover, the half-maximal effective concentration (EC50) in [8] lay in the range of 51 to 100 nM. For the same compound, in [9], the “MDCK-MDR1: % Recov A-B” value came to 76%; the “MDCK-MDR1: Papp A-B” value was 6.01 10^−6, cm/s; the “MDCK-MDR1: % Recov B-A” value stood at 87%; the “MDCK-MDR1: Papp B-A” value is listed as 40.8 10^−6, cm/s. Also, the “MDCK-MDR1: Efflux” value in data set [9] was 7.
As to `CN(c1ccc(-c2ccc(-c3cn[nH]c3)cc2O)nn1)C1CC2COCC(N2)C1F` (centres unmarked) [Compound 8A], the results for the EC50 in [2], in [5] and in data set [8] were 0.01 to 15 nM, 101 to 500 nM and 16 to 50 nM, respectively. The “MDCK-MDR1: % Recov A-B” value in [9] came to 87%. Besides, the “MDCK-MDR1: % Recov B-A” value in [9] was found to be 93%. Besides, the Papp A→B at 120 min, 5 μM in the data set with MDR1 (P-gp) [10] (MDCK-MDR1, pH 7.4, MDCK-MDR1: Papp A-B, A-B direction) came to 1.67 ×10⁻⁶ cm/s. For the same compound, the Papp B→A at 120 min, 5 μM in the data set on MDR1 (P-gp) [10] (MDCK-MDR1, pH 7.4, MDCK-MDR1: Papp B-A, B-A direction) is 59.3 ×10⁻⁶ cm/s. For the same compound, in the data set on MDR1 [11], the efflux ratio at 120 min, 5 μM came to 36.
